Experimental data: paper PMC12892976, “Alkylation-based optimization of antifungal FPPS inhibitors yields a potent, broad-spectrum lipophilic zoledronate derivative” (mBio, 2025)
Read-outs that look alike come from different tables or passages of the source.

How the values were obtained:
Candida auris = experiment: checkerboard drug interaction (FICI, MICc); assay type: cell-based;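 further: simplified diagonal checkerboard screen pairing antifungals with FPPS inhibitors, with FICI computed under the Loewe additivity model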
Method: (§1) Drug interactions between antifungals and FPPS inhibitors were investigated using a simplified checkerboard diagonal screening method ([45]). […] FICIs were determined according to the Loewe additivity model ([17]).

eight fungal species [1] = experiment: MIC/MFC summary across the eight fungal species of Table 1; assay type: cell-based
Method: The antifungal activity of these compounds was evaluated according to CLSI guidelines ([16]).

Candida glabrata [2] = experiment: checkerboard drug interaction (FICI, MICc);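 on all read-outs here: simplified diagonal checkerboard screen pairing antifungals with FPPS inhibitors, FICI calculated under the Loewe additivity model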; assay type: cell-based; details: for INH MICc: C. glabrata
Method: as §1

Trichophyton rubrum [3] = experiment: MIC/MFC broth microdilution (CLSI)
Method: (§2) Antifungal susceptibility was determined by broth microdilution according to the CLSI guidelines described in M27-Ed4 ([16]). […] MFC was determined by back-plating drug-treated cultures from MIC broths onto SDA plates. The MFC was defined as the lowest concentration from which no colonies could be cultured.

Candida glabrata [4] = experiment: MIC/MFC broth microdilution (CLSI);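 further: broth microdilution following CLSI M27-Ed4, MFC taken as the lowest drug level yielding no growth once MIC wells were subcultured on SDA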
Method: as §2

Cryptococcus neoformans = experiment: checkerboard drug interaction (FICI, MICc);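 on all read-outs here: antifungal plus FPPS inhibitor pairs tested against Cryptococcus neoformans by simplified diagonal checkerboard screening, FICI computed under the Loewe additivity model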; assay type: cell-based; details: for INH MICc: C. neoformans
Method: as §1

Aspergillus flavus = experiment: checkerboard drug interaction (FICI, MICc); assay type: cell-based; design: INH MICc (KET:INH) / INH MICc (FLC:INH): unit not given beside the values;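 further: simplified diagonal checkerboard screen pairing azole antifungals with FPPS inhibitors, FICI calculated under the Loewe additivity model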
eight fungal species [5] = experiment: checkerboard interaction with azoles, summary across the eight species; assay type: cell-based
Source text: Synergy between lipophilic FPPS inhibitors and azole antifungals was investigated by determining the fractional inhibitory concentration index (FICI) (Fig. 2; Table S1 Fig. S1) ([17]). […]. Derivatives PLA9 and 11, and PDA9, 11, and 12 antagonized azoles in C. albicans, C. neoformans, and C. deuterogattii, yet were largely synergistic in C. glabrata and S. cerevisiae. […].

Trichophyton rubrum [6] = experiment: checkerboard drug interaction (FICI, MICc); assay type: cell-based;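 further: simplified diagonal checkerboard screen pairing azole antifungals with FPPS inhibitors, FICI calculated under the Loewe additivity model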
Method: as §1

Candida albicans = experiment: checkerboard drug interaction (FICI, MICc);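 on all read-outs here: antifungal plus FPPS inhibitor combinations on Candida albicans tested by a simplified diagonal checkerboard screen, with FICI calculated under the Loewe additivity model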; assay type: cell-based; details: for INH MICc: C. albicans
Method: as §1

[7] = FLC:INH combination, MIC of the inhibitor in combination with FLC
[8] = ITR:INH combination, MIC of the inhibitor in combination with ITR
[9] = KET:INH combination, MIC of the inhibitor in combination with KET

CCCCCCCCCCn1cc[n+](CC(O)(P(=O)(O)O)P(=O)(O)O)c1 [10-ZOL, Decyl-zoledronate]
FICI (Candida auris; 5FC:10-ZOL): 1.5
FICI (Candida auris; FLC:10-ZOL): 0.5
bisphosphonate MICc (Candida auris; with 5FC): 1
bisphosphonate MICc (Candida auris; with AMB): 0.25
bisphosphonate MICc (Candida auris; with CAS): 0.5
bisphosphonate MICc (Candida auris; with FLC): 0.5
bisphosphonate MICc (Candida auris; with ITR): 0.125
bisphosphonate MICc (Candida auris; with KET): 1
bisphosphonate MICc (Candida auris; with VOR): 1
Geometric mean MFC (eight fungal species [1]; across eight species): 4.8 µg/mL
Geometric mean MIC (eight fungal species [1]; across eight species): 1.2 µg/mL
MFC (eight fungal species [1]; across eight species, read-out: Geometric mean MFC): 4.8 µg/mL
range of MICs across the tested fungal species (eight fungal species [1]; eight species): 0.5 to 4 µg/mL
MIC (eight fungal species [1]; geometric mean across eight species, read-out: GM fungal MIC): 1.2 µg/mL
MIC (eight fungal species [1]; read-out: Geometric mean MIC): 1.2 µg/mL
INH MICc (Candida glabrata [2]; [7]): 0.125
INH MICc (Candida glabrata [2]; [8]): 0.063
INH MICc (Candida glabrata [2]; [9]): 0.031
bisphosphonate MICc (Candida glabrata [2]; with 5FC): 0.125
bisphosphonate MICc (Candida glabrata [2]; with AMB): 0.25
bisphosphonate MICc (Candida glabrata [2]; with CAS): 0.25
bisphosphonate MICc (Candida glabrata [2]; with FLC): 0.125
bisphosphonate MICc (Candida glabrata [2]; with ITR): 0.063
bisphosphonate MICc (Candida glabrata [2]; with KET): 0.031
bisphosphonate MICc (Candida glabrata [2]; with VOR): 0.03125
MFC (Trichophyton rubrum [3]; Trichophyton rubrum): 64 µg/mL
MIC (Trichophyton rubrum [3]; Trichophyton rubrum): 1 µg/mL
MIC / MEC (Trichophyton rubrum [3]; Trichophyton rubrum R-218): 2 µg/mL
MIC / MEC (Candida glabrata [4]; Candida glabrata CBS138 (ATCC 2001)): 0.5 µg/mL
MFC (Candida glabrata [4]; Nakaseomyces glabratus, CBS138): 1 µg/mL
MIC (Candida glabrata [4]; Nakaseomyces glabratus, CBS138): 0.5 µg/mL
INH MICc (Cryptococcus neoformans; [7]): 0.125
INH MICc (Cryptococcus neoformans; [8]): 0.063
INH MICc (Cryptococcus neoformans; [9]): 0.063
bisphosphonate MICc (Cryptococcus neoformans; with 5FC): 0.5
bisphosphonate MICc (Cryptococcus neoformans; with AMB): 0.25
bisphosphonate MICc (Cryptococcus neoformans; with CAS): 0.5
bisphosphonate MICc (Cryptococcus neoformans; with FLC): 0.125
bisphosphonate MICc (Cryptococcus neoformans; with ITR): 0.063
bisphosphonate MICc (Cryptococcus neoformans; with KET): 0.063
bisphosphonate MICc (Cryptococcus neoformans; with VOR): 0.25
INH MICc (FLC:INH) (Aspergillus flavus; A. flavus, MIC of the inhibitor in combination with fluconazole): 0.063
INH MICc (ITR:INH) (Aspergillus flavus; A. flavus, MIC of the inhibitor in combination with itraconazole): 0.125
INH MICc (KET:INH) (Aspergillus flavus; A. flavus, MIC of the inhibitor in combination with ketoconazole): 0.125
FICI (Aspergillus flavus; AMB:10-ZOL): 2
FICI (Aspergillus flavus; FLC:10-ZOL): 0.53
FICI (Aspergillus flavus; VOR:10-ZOL): 0.37
bisphosphonate MICc (Aspergillus flavus; with 5FC): 1
bisphosphonate MICc (Aspergillus flavus; with AMB): 2
bisphosphonate MICc (Aspergillus flavus; with CAS): 2
bisphosphonate MICc (Aspergillus flavus; with FLC): 0.063
FICI (Aspergillus flavus; with FLC, Aspergillus flavus): 0.53
bisphosphonate MICc (Aspergillus flavus; with ITR): 0.125
bisphosphonate MICc (Aspergillus flavus; with KET): 0.125
bisphosphonate MICc (Aspergillus flavus; with VOR): 0.5
effect on azole MIC in combination (eight fungal species [5]; across all species tested): consistently reduced the MIC of the azole
antagonism with azole drugs (eight fungal species [5]; any of the azole drugs in any species tested): no antagonism
GM fungal MICc (eight fungal species [5]; geometric mean MIC in combination with azoles): 0.1
FICI (Trichophyton rubrum [6]; KET:10-ZOL): 0.5
INH MICc (FLC:INH) (Trichophyton rubrum [6]; T. rubrum, MIC of the inhibitor in combination with fluconazole): 0.5
INH MICc (ITR:INH) (Trichophyton rubrum [6]; T. rubrum, MIC of the inhibitor in combination with itraconazole): 0.5
INH MICc (KET:INH) (Trichophyton rubrum [6]; T. rubrum, MIC of the inhibitor in combination with ketoconazole): 0.5
FICI (Trichophyton rubrum [6]; VOR:10-ZOL): 0.5
bisphosphonate MICc (Trichophyton rubrum [6]; with 5FC): 1
bisphosphonate MICc (Trichophyton rubrum [6]; with AMB): 0.25
bisphosphonate MICc (Trichophyton rubrum [6]; with CAS): 0.5
bisphosphonate MICc (Trichophyton rubrum [6]; with FLC): 0.5
bisphosphonate MICc (Trichophyton rubrum [6]; with ITR): 0.5
bisphosphonate MICc (Trichophyton rubrum [6]; with KET): 0.5
bisphosphonate MICc (Trichophyton rubrum [6]; with VOR): 0.5
INH MICc (Candida albicans; [7]): 0.0625
INH MICc (Candida albicans; [8]): 0.25
INH MICc (Candida albicans; [9]): 0.125
bisphosphonate MICc (Candida albicans; with 5FC): 0.5
bisphosphonate MICc (Candida albicans; with AMB): 0.25
bisphosphonate MICc (Candida albicans; with CAS): 1
